Measurements from ChEMBL document CHEMBL1201862, “PubChem BioAssay data set” (2004).
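96-well plates; 48 h exposure; 5 concentrations. Endpoints by linear interpolation between flanking doses. Not reached: highest tested concentration assigned. At the GI50, growth is halved.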 Active and inactive are the calls of the source. No stated cut-off is given here; in the data, active = GI50 up to about 1.1 µM and inactive = higher.

Experiments:
Test in all cases: NCI anticancer screen, dose series, 48 h
DMS-114 = tested on: DMS-114
OVCAR-8 = tested on: OVCAR-8
SK-MEL-5 = tested on: SK-MEL-5
NCI-H23 = tested on: NCI-H23
A498 = tested on: A498
SW-620 = tested on: SW-620
RXF 393 = tested on: RXF 393
CCRF-CEM = tested on: CCRF-CEM
SNB-75 = tested on: SNB-75
U-251 = tested on: U-251
CAKI-1 = tested on: CAKI-1
HOP-92 = tested on: HOP-92
HOP-18 = tested on: HOP-18
SK-MEL-28 = tested on: SK-MEL-28
LXFL 529 = tested on: LXFL 529
OVCAR-3 = tested on: OVCAR-3
M14 = tested on: M14
SNB-19 = tested on: SNB-19
SF-539 = tested on: SF-539
NCI-H522 = tested on: NCI-H522
UACC-257 = tested on: UACC-257
SNB-78 = tested on: SNB-78
M19-MEL = tested on: M19-MEL
TK-10 = tested on: TK-10
SR = tested on: SR
HCC 2998 = tested on: HCC 2998
IGROV-1 = tested on: IGROV-1
DLD-1 = tested on: DLD-1
HCT-15 = tested on: HCT-15
OVCAR-5 = tested on: OVCAR-5
RXF 631 = tested on: RXF 631
HOP-62 = tested on: HOP-62
SK-OV-3 = tested on: SK-OV-3
UACC-62 = tested on: UACC-62
HCT-116 = tested on: HCT-116
786-0 = tested on: 786-0
MOLT-4 = tested on: MOLT-4
Malme-3M = tested on: Malme-3M
SN12C = tested on: SN12C
ACHN = tested on: ACHN
COLO 205 = tested on: COLO 205
A549 = tested on: A549
EKVX = tested on: EKVX
NCI-H460 = tested on: NCI-H460
SF-295 = tested on: SF-295
XF498 = tested on: XF498
LOX IMVI = tested on: LOX IMVI
KM-20L2 = tested on: KM-20L2
HL-60 = tested on: HL-60
DMS-273 = tested on: DMS-273
UO-31 = tested on: UO-31
OVCAR-4 = tested on: OVCAR-4
RPMI-8226 = tested on: RPMI-8226
KM12 = tested on: KM12
SF-268 = tested on: SF-268
NCI-H226 = tested on: NCI-H226
HT-29 = tested on: HT-29
K562 = tested on: K562
SK-MEL-2 = tested on: SK-MEL-2

Measured: GI50

CC(=O)/C=C/c1cccc(N=S)c1
inactive: DMS-114 23 µM | OVCAR-8 12.2 µM | SK-MEL-5 23.4 µM | NCI-H23 30.7 µM | A498 27 µM | SW-620 2.44 µM | RXF 393 17.6 µM | CCRF-CEM 8.24 µM | SNB-75 21.1 µM | U-251 6.64 µM | CAKI-1 > 50.9 µM | HOP-92 > 100 µM | HOP-18 50 µM | SK-MEL-28 16.5 µM | LXFL 529 5.78 µM | OVCAR-3 19.2 µM | M14 6.71 µM | SNB-19 > 43.2 µM | SF-539 5.9 µM | NCI-H522 18.6 µM | UACC-257 29.4 µM | SNB-78 32.8 µM | M19-MEL 6.25 µM | TK-10 > 52.8 µM | SR 7.78 µM | HCC 2998 12.7 µM | IGROV-1 19.2 µM | DLD-1 4.88 µM | OVCAR-5 > 69 µM | RXF 631 39 µM | HOP-62 > 63.5 µM | SK-OV-3 > 48.1 µM | UACC-62 21.6 µM | HCT-116 1.39 µM | 786-0 6 µM | MOLT-4 > 40.1 µM | Malme-3M > 73.8 µM | SN12C 25.6 µM | ACHN > 38.4 µM | COLO 205 20.1 µM | A549 26.5 µM | EKVX > 40.8 µM | NCI-H460 > 36.9 µM | SF-295 15.2 µM | XF498 > 100 µM | LOX IMVI 2.39 µM | KM-20L2 13.8 µM | HL-60 5.79 µM | DMS-273 7.06 µM | UO-31 39.4 µM | OVCAR-4 52.2 µM | RPMI-8226 3.63 µM | KM12 6.68 µM | SF-268 > 30.3 µM | NCI-H226 46 µM | HT-29 6.28 µM | K562 4.62 µM
8.79 µM: HCT-15

COC(=O)c1cccc2cccc(C(=O)Nc3ccc(C)cc3C)c12
> 100 µM: HCT-15
active: HL-60 1.08 µM
inactive: DMS-114 > 100 µM | OVCAR-8 > 100 µM | SK-MEL-5 > 100 µM | SK-MEL-2 > 100 µM | NCI-H23 > 100 µM | A498 33 µM | SW-620 > 100 µM | RXF 393 39.3 µM | CCRF-CEM 3.72 µM | SNB-75 > 100 µM | U-251 > 100 µM | CAKI-1 > 100 µM | HOP-92 61.8 µM | HOP-18 65.5 µM | SK-MEL-28 > 100 µM | LXFL 529 > 100 µM | OVCAR-3 72.8 µM | M14 > 100 µM | SNB-19 > 100 µM | SF-539 96.4 µM | NCI-H522 70.1 µM | UACC-257 > 100 µM | SNB-78 > 100 µM | M19-MEL > 100 µM | TK-10 > 100 µM | SR 37.6 µM | HCC 2998 > 100 µM | IGROV-1 > 100 µM | DLD-1 > 100 µM | OVCAR-5 > 100 µM | RXF 631 > 100 µM | HOP-62 > 100 µM | SK-OV-3 > 100 µM | UACC-62 > 100 µM | HCT-116 > 100 µM | 786-0 > 100 µM | MOLT-4 48.5 µM | Malme-3M > 100 µM | SN12C > 100 µM | ACHN 67.1 µM | COLO 205 69.5 µM | A549 > 100 µM | EKVX > 100 µM | NCI-H460 > 100 µM | SF-295 > 100 µM | XF498 54.6 µM | LOX IMVI > 100 µM | KM-20L2 > 100 µM | DMS-273 > 100 µM | UO-31 > 100 µM | OVCAR-4 93.8 µM | RPMI-8226 22.5 µM | KM12 > 100 µM | SF-268 > 100 µM | NCI-H226 > 100 µM | HT-29 91 µM | K562 > 100 µM

Cn1cc(NC(=O)c2cc(NC(=O)CCCCCC(=O)Nc3cc(C(=O)Nc4cc(C(=O)NCCC(=N)N)n(C)c4)n(C)c3)cn2C)cc1C(=O)NCCC(=N)N
> 100 µM: HCT-15
inactive: DMS-114 33 µM | OVCAR-8 > 100 µM | SK-MEL-5 51.3 µM | NCI-H23 > 100 µM | A498 > 100 µM | SW-620 > 100 µM | RXF 393 > 100 µM | CCRF-CEM > 100 µM | SNB-75 > 100 µM | U-251 > 100 µM | CAKI-1 > 100 µM | HOP-92 > 100 µM | HOP-18 > 100 µM | SK-MEL-28 25.2 µM | LXFL 529 > 100 µM | OVCAR-3 > 100 µM | M14 > 100 µM | SNB-19 > 100 µM | SF-539 > 100 µM | UACC-257 27.2 µM | SNB-78 > 100 µM | M19-MEL 15.2 µM | TK-10 > 100 µM | HCC 2998 > 100 µM | IGROV-1 98.6 µM | DLD-1 > 100 µM | OVCAR-5 > 100 µM | RXF 631 > 100 µM | SK-OV-3 > 100 µM | UACC-62 64.9 µM | HCT-116 67.1 µM | 786-0 > 100 µM | Malme-3M 9.64 µM | SN12C > 100 µM | ACHN > 100 µM | COLO 205 > 100 µM | A549 45.3 µM | EKVX > 100 µM | NCI-H460 26.4 µM | SF-295 > 100 µM | XF498 > 100 µM | LOX IMVI 46.1 µM | KM-20L2 > 100 µM | HL-60 30 µM | DMS-273 67.3 µM | UO-31 > 100 µM | OVCAR-4 > 100 µM | KM12 73.8 µM | SF-268 > 100 µM | HT-29 > 100 µM | K562 83.6 µM

O=C1c2ccccc2C(=O)c2nc(-c3ccccc3)c(-c3ccccc3)nc21
inactive: DMS-114 1.21 µM | OVCAR-8 > 100 µM | SK-MEL-5 1.49 µM | SK-MEL-2 10.8 µM | NCI-H23 17.6 µM | A498 28.2 µM | SW-620 2.7 µM | RXF 393 > 43.5 µM | CCRF-CEM > 100 µM | SNB-75 8.15 µM | U-251 > 67 µM | CAKI-1 > 100 µM | HOP-92 20.3 µM | HOP-18 26.7 µM | SK-MEL-28 > 74.1 µM | LXFL 529 > 100 µM | OVCAR-3 2.58 µM | M14 5.69 µM | SNB-19 24.9 µM | SF-539 24.7 µM | NCI-H522 14.4 µM | UACC-257 1.89 µM | SNB-78 > 100 µM | TK-10 > 100 µM | HCC 2998 > 100 µM | DLD-1 > 100 µM | OVCAR-5 > 100 µM | RXF 631 33.4 µM | HOP-62 33 µM | SK-OV-3 > 100 µM | UACC-62 2.74 µM | HCT-116 > 100 µM | 786-0 > 61.7 µM | MOLT-4 > 100 µM | Malme-3M 1.22 µM | ACHN > 100 µM | COLO 205 17.7 µM | A549 22.8 µM | EKVX > 100 µM | NCI-H460 5.83 µM | SF-295 11 µM | XF498 14.4 µM | LOX IMVI 8.04 µM | KM-20L2 50.5 µM | DMS-273 33.7 µM | UO-31 > 100 µM | OVCAR-4 7.08 µM | RPMI-8226 > 100 µM | KM12 > 100 µM | SF-268 > 100 µM | NCI-H226 22.5 µM | HT-29 21.7 µM | K562 > 100 µM
active: M19-MEL 0.427 µM
> 88.1 µM: HCT-15
